Literature values as cited in patent US20080254098A1, “Neural tube birth defect reduction with folic acid delivery in catamenial hygiene products” (priority 2007, published 2008).

Legend:
[1] = basis of the recommended daily intake of 2 mcg to 3 mcg
[2] = Norway; daily folic acid supplements of 0.4 mg or more
[3] = red blood cell folate

| absorption rate [1] | biological half-life [3] | Compound | births with neural tube defects (Nova Scotia, Canada, 1998-2000, after fortification began in 1998, 2.58 per 1000 in 1991-1997 before it) | percent of women with one previous neural tube defect pregnancy who had a lower risk of another child with this birth defect (Wald 1991, prescription doses of folic acid versus placebo) | reduction of incidence of neural tube defects by adequate supplementing with folic acid (current estimate, depends on local dietary habits and ethnicity) | reduction of risk of cleft lip, with or without cleft palate [2] |
| --- | --- | --- | --- | --- | --- | --- |
| 50% |  | cyanocobalamin [vitamin B12] |  |  |  |  |
|  | approximately 8 weeks | Nc1nc2ncc(CNc3ccc(C(=O)N[C@@H](CCC(=O)O)C(=O)O)cc3)nc2c(=O)[nH]1 [folic acid] | 1.17 per 1,000 | 72% | 50%-70% | 40% |
